# Reference: EP4559922A1, “ANTIHISTAMINE COMPOUND, PREPARATION METHOD THEREFOR AND USE THEREOF” (HC Synthetic Pharmaceutical Co., Ltd., priority 2022, dated 2024)
# How the values were obtained:
# [1] = Solubility of the compounds in water, methanol and isopropanol; assay type: physicochemical; details: for Solubility in Isopropanol: solvent isopropanol; for Solubility in Methanol: solvent methanol; for Solubility in Water: solvent water
# Procedure: The solubility in water, methanol, and isopropanol of the compounds of the present disclosure and the comparative compounds were measured separately.
# [2] = system: histamine-induced asthma in guinea pigs; assay: Antiasthmatic effect on histamine-induced asthma in guinea pigs (latency period); assay type: in vivo; details: X±s, n = 5; for Post-administration latency period: 1 mg/kg oral gavage, sixty minutes after administration, histamine hydrochloride spray, capped at 8 minutes; for Pre-administration latency period: baseline before administration, histamine hydrochloride 0.8 mg/mL sprayed 40 seconds
# Procedure: The guinea pigs were placed in a polymethyl methacrylate bell jar and a histamine hydrochloride solution was sprayed ultrasonically (0.8 mg/mL) for 40 seconds. The time point at which the guinea pigs developed asthma was recorded. The time of convulsion and fall was taken as the latency period. Guinea pigs with a latency period exceeding 180 seconds were not selected. […] The guinea pigs were administered by oral gavage at a dose of 2 mL/kg·bw. Sixty minutes after the administration, the guinea pigs were placed in bell jars, and histamine hydrochloride solution was sprayed under the same conditions as in the previous selection. The latency period for the onset of asthma was recorded. […] The results were processed statistically.
# [3] = system: isolated ileal smooth muscle of guinea pigs; assay: Effect on muscle tone of isolated ileal smooth muscle of guinea pigs (no histamine added); details: X±s; for Smooth muscle tone After administration: 5 minutes after adding drug; for Smooth muscle tone After administration / Smooth muscle tone Before administration: n = 8; for Antispasmodic percentage: relative to tone before adding compound, n = 8, 5 min; for Smooth muscle tone Before administration: baseline
# Procedure: (§1) The guinea pig was knocked unconscious with a wooden stick, and the abdomen was immediately dissected to separate the ileum about 15 cm in length. The contents of the intestinal segment were flushed with Tyrode's solution and placed in Tyrode's solution at a constant temperature of 37°C for later use, and oxygen was supplied simultaneously. The experimental intestinal tract (1 cm in length) was cut and placed into 20 ml of Tyrode's solution at a constant temperature of 37°C with a continuous oxygen supply. One end of the intestine was fixed on the ventilation hook and the other end was connected to the muscle tone transducer and led to the computer interface. The muscle tone value of the ileal smooth muscle was recorded with a BL system. The experiment was carried out after the intestinal segment contraction became stable.
# After the ileum contraction curve stabilized, the tone values before adding the drug were recorded, then the drug or DMSO was added, and the average tone value of the ileum contraction curve at that point was recorded 5 minutes later. The operation was repeated 8 times. The antispasmodic percentage was calculated according to the following formula. Antispasmodic percentage =; (Tone value before adding subject compound−Tone value after adding subject compound)/(Tone value before adding subject compound); × 100% [formula]
# [4] = Antagonism of histamine-induced contraction of isolated ileal smooth muscle of guinea pigs; details: relative to tone after adding histamine; x±s, n = 8; 3 min
# Procedure: as §1
# (§2) After the ileal peristalsis curve stabilized, the tone values before adding the compound were recorded, and then 0.05 mL of histamine was added. […] The operation was repeated 8 times. The antispasmodic percentage was calculated using the following equation. Antispasmodic percentage =; (Tone value after adding histamine−Tone value after adding subject compound)/(Tone value after adding histamine) × 100% [formula]
# histamine = assay: as above; details: x±s, n = 8; for Smooth muscle tone After administration: 3 minutes after adding 0.05 mL compound following histamine; for Smooth muscle tone After addition of histamine: after 0.05 mL histamine, before compound; for Smooth muscle tone Before administration: baseline before histamine
# Procedure: as §1, §2
# [5] = Accelerated stability test; assay type: physicochemical; details: 40°C ± 2°C, relative humidity 75% ± 5%
SMILES,Solubility in Isopropanol [1] [mg/mL],Solubility in Methanol [1] [mg/mL],Solubility in Water [1],Post-administration latency period [2] [s],Smooth muscle tone After administration [3] [g],Antispasmodic percentage [3] [%],Antispasmodic percentage [4] [%],Smooth muscle tone After administration (histamine) [g],Antispasmodic percentage ([3]; 5 min) [%],Pre-administration latency period [2] [s],Smooth muscle tone Before administration [3] [g],Smooth muscle tone After addition of histamine (histamine) [g],Smooth muscle tone Before administration (histamine) [g],further results
"OCCCCCN1CCC(=C2c3ccc(Cl)cc3CCc3cccnc32)CC1 [Hydroxypentyl desloratadine, reference compound]",29,19,Practically insoluble,284.29 ± 57.34,1.28 ± 0.24,25.14±12.21,57.48±12.05,1.44 ± 0.51,–,–,–,–,–,–
"OCCCCCCN1CCC(=C2c3ccc(Cl)cc3CCc3cccnc32)CC1 [Hydroxyhexyl desloratadine, reference compound]",32,15,Practically insoluble,281.18 ± 53.76,1.30 ± 0.30,24.42±11.13,58.06±13.39,1.43 ± 0.47,–,–,–,–,–,–
O=C1Cc2ccccc2C(=C2CCN(CCCOCOP(=O)(O)O)CC2)c2ccsc21 [Compound III-7],–,–,20 mg/mL,377.23 ± 50.23,1.20 ± 0.25,–,66.28±16.16,1.16 ± 0.22,30.23±19.04,–,–,–,–,"Content ([5]; Month 0): 99.7%; Description ([5]; Month 0): White powder; Related substances ([5]; Month 0): 0.03%; Description ([5]; Month 1): White powder; Related substances ([5]; Month 1): 0.05%; Description ([5]; Month 2): White powder; Related substances ([5]; Month 2): 0.10%; Description ([5]; Month 3): White powder; Related substances ([5]; Month 3): 0.15%; Description ([5]; Month 6): White powder; Related substances ([5]; Month 6): 0.34%; remaining at 730 h ([5]; storage 75% relative humidity, Month 1, read-out: Content): 99.7%; remaining at 1460 h ([5]; storage 75% relative humidity, Month 2, read-out: Content): 99.6%; remaining at 2190 h ([5]; storage 75% relative humidity, Month 3, read-out: Content): 99.5%; remaining at 4380 h ([5]; storage 75% relative humidity, Month 6, read-out: Content): 99.2%"
O=C1Cc2ccccc2C(=C2CCN(CCOP(=O)(O)O)CC2)c2ccsc21 [Compound III-2],–,–,20 mg/mL,377.22 ± 50.87,1.21 ± 0.24,–,65.39±17.28,1.18 ± 0.21,28.82±16.05,99.48 ± 50.88,1.70 ± 0.21,3.41 ± 0.89,1.75 ± 0.18,–
O=C1Cc2ccccc2C(=C2CCN(CCCCCOP(=O)(O)O)CC2)c2ccsc21 [Compound III-5],–,–,20 mg/mL,375.52 ± 49.26,1.13 ± 0.31,–,65.01±18.17,1.20 ± 0.21,33.53±19.21,102.32 ± 54.23,1.70 ± 0.20,3.43 ± 0.93,1.73 ± 0.21,–
O=C1Cc2ccccc2C(=C2CCN(CCCCOCOP(=O)(O)O)CC2)c2ccsc21 [Compound III-8],–,–,20 mg/mL,376.24 ± 50.42,1.16 ± 0.21,–,66.47±18.83,1.12 ± 0.21,31.76±18.69,99.49 ± 51.11,1.70 ± 0.29,3.42 ± 0.99,1.78 ± 0.20,–
"OCCCCN1CCC(=C2c3ccc(Cl)cc3CCc3cccnc32)CC1 [Hydroxybutyl desloratadine, reference compound]",28,22,Practically insoluble,286.23 ± 55.29,1.31 ± 0.28,24.27±12.31,57.77±13.69,1.45 ± 0.47,–,–,–,–,–,–
O=C1Cc2ccccc2C(=C2CCN(COP(=O)(O)O)CC2)c2ccsc21 [Compound III-1],–,–,20 mg/mL,376.25 ± 51.77,1.18 ± 0.25,–,66.76±16.11,1.14 ± 0.23,30.59±18.11,98.57 ± 49.10,1.70 ± 0.17,3.43 ± 1.06,1.79 ± 0.21,–
"Cc1cncc(CN2CCC(=C3c4ccccc4CC(=O)c4sccc43)CC2)c1 [Rupatifen, reference compound]",–,–,Practically insoluble,253.23 ± 52.29,1.31 ± 0.25,23.84±11.10,55.42±11.38,1.52 ± 0.46,–,–,–,–,–,–
"OCCN1CCC(=C2c3ccc(Cl)cc3CCc3cccnc32)CC1 [Hydroxyethyl desloratadine, reference compound]",21,27,Practically insoluble,281.12 ± 54.82,1.33 ± 0.27,21.76±10.04,58.53±10.79,1.41 ± 0.43,–,–,–,–,–,–
O=C1Cc2ccccc2C(=C2CCN(CCCCCOCOP(=O)(O)O)CC2)c2ccsc21 [Compound III-9],–,–,20 mg/mL,267.95 ± 51.16,1.12 ± 0.29,–,67.25±17.74,1.17 ± 0.24,34.50±19.89,–,–,–,–,–
O=C1Cc2ccccc2C(=C2CCN(CCCCOP(=O)(O)O)CC2)c2ccsc21 [Compound III-4],–,–,20 mg/mL,369.49 ± 51.06,1.16 ± 0.23,–,64.24±17.11,1.23 ± 0.24,32.55±18.33,99.07 ± 50.25,1.72 ± 0.16,3.44 ± 0.96,1.78 ± 0.17,–
"OCCCN1CCC(=C2c3ccc(Cl)cc3CCc3cccnc32)CC1 [Hydroxypropyl desloratadine, reference compound]",26,24,Practically insoluble,285.28 ± 56.32,1.30 ± 0.24,23.97±11.12,57.05±12.07,1.46 ± 0.49,–,–,–,–,–,–
